{"source": "patent US11166942B2", "about": "(PRAXIS BIOTECH LLC, priority 2018, dated 2021)", "key": {"ATF4": {"tested_on": "ATF4", "test": "ATF4 inhibition assay under Aβ stimulation (SH-SY5Y cells with 7PA2 CHO conditioned media)", "type": "cell-based, human", "conditions": "16 hours, 1 nM to 10 μM compound (FIG. 7)", "method": "Chinese hamster ovary (CHO) cells that stably express human APP751 incorporating the familial Alzheimer's disease mutation V717F were used as a source of […] monomer and low-n oligomers. These cells, referred to as 7PA2 CHO cells, were cultured in 100 mm dishes with Dulbecco's modified Eagle's medium (DMEM) containing 10% fetal bovine serum, 2 mM L-glutamine, 100 U/ml penicillin, and 100 μg/ml […], streptomycin and […] G418. Upon reaching 90-100% confluency, cells were washed with 5 mL of glutamine- and serum-free DMEM and incubated for approximately 16 h in 5 mL of the same DMEM. Conditioned media (CM) was collected.\nSH-SY5Y cells were maintained at 37° C. and 5% CO2 in RPMI 1640 media supplemented with 10% fetal bovine serum (FBS), penicillin and streptomycin. After reaching 80% of confluence, cells were detached and seeded on 6 well plates in complete media, allowed to recover 48 h and treated for 16 hours with CM from WT CHO cells (wtCM) or 7PA2 CHO cells (7PA2CM) in the presences of various concentrations ranging from 1 nM to 10 μM of compound 58.\n(§1) After 16 hours treatment, culture media were removed and cells were lysed with SDS-PAGE lysis buffer. Lysates were transferred to 1.5 ml tubes and sonicated for 3 min. Total protein amount was quantified using BCA Protein Assay Kit (Pierce). Equal amount of proteins (30 μg) were loaded on SDS-PAGE gels. […]"}, "[1]": {"tested_on": "fasted Balb/c mice, quadriceps", "test": "Fasting-induced muscle atrophy", "type": "in vivo, mouse", "conditions": "10 mg/kg oral", "method": "Wild type eight-weeks-old male Balb/c mice obtained from the vivarium Fundación Ciencia & Vida Chile (Santiago, Chile) were used. Mice were housed in independent plastic cages in a room maintained at 25° C. with a 12-h:12-h light:dark cycle.\nTwenty-four hours before and during the 2 days of fasted procedures, animals were weighed and receive oral administration via feeding tubes (15 gauge) of vehicle (50% Polyethylene glycol 400 (Sigma-Aldrich P3265) in distilled water or 10 mg/kg of test compound formulated in vehicle solution.\nAfter 2 days of fasting the animals were weighed and sacrificed. Quadriceps were removed from both hindlimbs and weighed. Mice with feed and water ad libitum were used as control. […]\nUpon collection, muscles were immediately frozen in liquid nitrogen and then stored at −80° C. […] Protein concentration in supernatants was determined using BCA Protein Assay Kit (Pierce). […]\nPuromycin (12D10) (Merck Millipore) ATF4 (Abcam), Atrogin-1 (ECM Biosciences), MuRF-1 (Santa Cruz Biotechnology) and β-actin (Sigma-Aldrich) antibodies were used as primary antibodies. […] Quantification of protein bands was done by densitometry using ImageJ software. […]"}, "CHO cells": {"tested_on": "CHO cells", "test": "Protein production by transient gene expression (GFP in CHO cells)", "type": "cell-based, Chinese hamster", "conditions": "pIRES2-AcGFP1, 1 μM or 5 μM, 24 hours (FIGS. 12A, 12B)", "method": "CHO cells were maintained at 37° C. and 5% CO2 in DMEM supplemented with 10% fetal bovine serum (FBS), 2 mM L-glutamine, 100 U/ml penicillin, and 100 μg/ml streptomycin. After reaching 80% of confluence, cells were detached and seeded on 6-well plates in complete media and allowed to recover for 48 h. Cells were then washed three times with PBS and transfected with 1 μg of plasmid pIRES2-AcGFP1 (Clonetech 632435) using Lipofectamine LTX (Thermofisher Scientific) according to manufacturer instructions. Transfection media was supplemented with culture medium alone (vehicle) or 1 μM or 5 μM compound 58 in culture medium.\nas §1, with “After 24” for “After 16”, “μg) was” for “μg) were”\nGFP (cell Signaling) and β-actin (Sigma-Aldrich) antibodies were used as primary antibodies. […] Quantification of protein bands was done by densitometry using ImageJ software.\nThe levels were normalized to β-actin expression and percentage was calculated as the percent relative to the expression of GFP in untreated condition (Veh) which corresponds to 100%."}}, "data": [{"smiles": "O=C(NN1CCN(C[C@@H](O)COc2ccc(Cl)c(F)c2)CC1)c1ccc2cc(Cl)ccc2n1", "note": "[Compound 58, (R)-6-chloro-N-(4-(3-(4-chloro-3-fluorophenoxy)-2-hydroxypropyl)piperazin-1-yl)quinoline-2-carboxamide]", "values": [{"measurement": "ATF4 expression in the presence of Aβ oligomers (immunoblot)", "setting": "ATF4", "value": "inhibits the expression of ATF4 in the presence of Aβ oligomers treatment in a dose dependent manner"}, {"measurement": "ATF4 expression in quadriceps", "setting": "[1]; vs vehicle-treated fasted mice (FIG. 8F)", "value": "reduction"}, {"measurement": "Atrogin-1 expression in quadriceps", "setting": "[1]; vs vehicle-treated fasted mice (FIG. 8G)", "value": "reduction"}, {"measurement": "expression of GFP after transient transfection", "setting": "CHO cells", "value": "increased expression of GFP"}]}]}
